Measurements from the CheMixHub viscosity set.
± gives the uncertainty stated by the source.

Test: xn = mol fraction of the nth substance listed

C1CCC2CCCCC2C1 (configuration not stated) + C1CCCCC1
298.15 K, 101 kPa
Conditions	viscosity [mPa·s]
x1 = 0.1473	1.061 ± 0.014
x1 = 0.3151	1.26 ± 0.016
x1 = 0.5054	1.48 ± 0.019
x1 = 0.7334	1.77 ± 0.023

CCCCCCCC + C1CCCCC1
Conditions	viscosity [mPa·s]
298.15 K, 100 kPa, x2 = 0.2	0.5398 ± 0.022
298.15 K, 100 kPa, x2 = 0.4	0.5777 ± 0.023
298.15 K, 100 kPa, x2 = 0.6	0.6273 ± 0.025
298.15 K, 100 kPa, x2 = 0.8	0.7162 ± 0.029
298.15 K, 101.33 kPa, x2 = 0.0972	0.516 ± 0.004
298.15 K, 101.33 kPa, x2 = 0.1084	0.5318 ± 0.0049
298.15 K, 101.33 kPa, x2 = 0.2042	0.53 ± 0.004
298.15 K, 101.33 kPa, x2 = 0.2223	0.549 ± 0.005
298.15 K, 101.33 kPa, x2 = 0.3014	0.548 ± 0.004
298.15 K, 101.33 kPa, x2 = 0.3199	0.569 ± 0.0052
298.15 K, 101.33 kPa, x2 = 0.4044	0.568 ± 0.004
298.15 K, 101.33 kPa, x2 = 0.412	0.5851 ± 0.0053
298.15 K, 101.33 kPa, x2 = 0.5009	0.607 ± 0.0055
298.15 K, 101.33 kPa, x2 = 0.5017	0.591 ± 0.004
298.15 K, 101.33 kPa, x2 = 0.5763	0.628 ± 0.0056
298.15 K, 101.33 kPa, x2 = 0.6029	0.62 ± 0.005
298.15 K, 101.33 kPa, x2 = 0.6597	0.6568 ± 0.0058
298.15 K, 101.33 kPa, x2 = 0.7041	0.661 ± 0.005
298.15 K, 101.33 kPa, x2 = 0.7236	0.6788 ± 0.006
298.15 K, 101.33 kPa, x2 = 0.7926	0.7148 ± 0.0062
298.15 K, 101.33 kPa, x2 = 0.8014	0.705 ± 0.005
298.15 K, 101.33 kPa, x2 = 0.8586	0.8162 ± 0.007
298.15 K, 101.33 kPa, x2 = 0.8971	0.774 ± 0.005
298.15 K, 101.33 kPa, x2 = 0.9173	0.8737 ± 0.0074
298.15 K, 101.33 kPa, x2 = 0.9767	0.8737 ± 0.0074
303.15 K, 101 kPa, x2 = 0.1031	0.4956 ± 0.0038
303.15 K, 101 kPa, x2 = 0.1978	0.51 ± 0.0038
303.15 K, 101 kPa, x2 = 0.2979	0.5238 ± 0.0039
303.15 K, 101 kPa, x2 = 0.4018	0.5434 ± 0.004
303.15 K, 101 kPa, x2 = 0.4842	0.5614 ± 0.004
303.15 K, 101 kPa, x2 = 0.7004	0.6348 ± 0.0044
303.15 K, 101 kPa, x2 = 0.8984	0.7473 ± 0.0049
303.15 K, 101.33 kPa, x2 = 0.0972	0.487 ± 0.004
303.15 K, 101.33 kPa, x2 = 0.2042	0.498 ± 0.004
303.15 K, 101.33 kPa, x2 = 0.3014	0.515 ± 0.004
303.15 K, 101.33 kPa, x2 = 0.4044	0.533 ± 0.004
303.15 K, 101.33 kPa, x2 = 0.5017	0.554 ± 0.004
303.15 K, 101.33 kPa, x2 = 0.6029	0.581 ± 0.004
303.15 K, 101.33 kPa, x2 = 0.7041	0.614 ± 0.005
303.15 K, 101.33 kPa, x2 = 0.8014	0.656 ± 0.005
303.15 K, 101.33 kPa, x2 = 0.8971	0.717 ± 0.005
308.15 K, 101.33 kPa, x2 = 0.0972	0.459 ± 0.004
308.15 K, 101.33 kPa, x2 = 0.2042	0.469 ± 0.004
308.15 K, 101.33 kPa, x2 = 0.3014	0.483 ± 0.004
308.15 K, 101.33 kPa, x2 = 0.4044	0.501 ± 0.004
308.15 K, 101.33 kPa, x2 = 0.5017	0.518 ± 0.004
308.15 K, 101.33 kPa, x2 = 0.6029	0.543 ± 0.004
308.15 K, 101.33 kPa, x2 = 0.7041	0.573 ± 0.004
308.15 K, 101.33 kPa, x2 = 0.8014	0.608 ± 0.004
308.15 K, 101.33 kPa, x2 = 0.8971	0.664 ± 0.005
323.15 K, 100 kPa, x2 = 0.2	0.4103 ± 0.017
323.15 K, 100 kPa, x2 = 0.4	0.4326 ± 0.018
323.15 K, 100 kPa, x2 = 0.6	0.4655 ± 0.019
323.15 K, 100 kPa, x2 = 0.8	0.5138 ± 0.021

CCCCCCCCCCCCCC + C1CCCCC1
298.15 K, 101.33 kPa
Conditions	viscosity [mPa·s]
x1 = 0.0144	0.9238 ± 0.0078
x2 = 0.1743	1.907 ± 0.015
x2 = 0.3074	1.756 ± 0.014
x2 = 0.4253	1.621 ± 0.013
x2 = 0.5304	1.486 ± 0.012
x2 = 0.6125	1.384 ± 0.011
x2 = 0.6841	1.291 ± 0.01
x2 = 0.7505	1.207 ± 0.0099
x2 = 0.8066	1.131 ± 0.0093
x2 = 0.8651	1.064 ± 0.0088
x2 = 0.9088	1.01 ± 0.0084
x2 = 0.9483	0.9646 ± 0.0081

CCCCCO + C1CCCCC1
Conditions	viscosity [mPa·s]
293.15 K, 100 kPa, x2 = 0.0815	3.56 ± 0.29
293.15 K, 100 kPa, x2 = 0.1623	3.17 ± 0.25
293.15 K, 100 kPa, x2 = 0.2416	2.81 ± 0.23
293.15 K, 100 kPa, x2 = 0.3481	2.37 ± 0.19
293.15 K, 100 kPa, x2 = 0.4401	2.06 ± 0.17
293.15 K, 100 kPa, x2 = 0.5592	1.69 ± 0.14
293.15 K, 100 kPa, x2 = 0.6501	1.46 ± 0.12
293.15 K, 100 kPa, x2 = 0.7414	1.28 ± 0.1
293.15 K, 100 kPa, x2 = 0.8502	1.1 ± 0.09
293.15 K, 100 kPa, x2 = 0.9414	1.02 ± 0.08
298.15 K, 101 kPa, x1 = 0.0229	0.889 ± 0.009
298.15 K, 101 kPa, x1 = 0.0543	0.908 ± 0.009
298.15 K, 101 kPa, x1 = 0.14	0.991 ± 0.009
298.15 K, 101 kPa, x1 = 0.2319	1.064 ± 0.01
298.15 K, 101 kPa, x1 = 0.3975	1.326 ± 0.013
298.15 K, 101 kPa, x1 = 0.5045	1.548 ± 0.015
298.15 K, 101 kPa, x1 = 0.6384	1.974 ± 0.018
298.15 K, 101 kPa, x1 = 0.7129	2.264 ± 0.021
298.15 K, 101 kPa, x1 = 0.8283	2.738 ± 0.025
298.15 K, 101 kPa, x1 = 0.904	3.066 ± 0.028
303.15 K, 100 kPa, x2 = 0.0815	2.7 ± 0.22
303.15 K, 100 kPa, x2 = 0.1623	2.41 ± 0.19
303.15 K, 100 kPa, x2 = 0.2416	2.15 ± 0.17
303.15 K, 100 kPa, x2 = 0.3481	1.84 ± 0.15
303.15 K, 100 kPa, x2 = 0.4401	1.61 ± 0.13
303.15 K, 100 kPa, x2 = 0.5592	1.34 ± 0.11
303.15 K, 100 kPa, x2 = 0.6501	1.18 ± 0.1
303.15 K, 100 kPa, x2 = 0.7414	1.05 ± 0.08
303.15 K, 100 kPa, x2 = 0.8502	0.92 ± 0.07
303.15 K, 100 kPa, x2 = 0.9414	0.85 ± 0.07
303.15 K, 101 kPa, x1 = 0.6491	1.531 ± 0.16
303.15 K, 101.33 kPa, x1 = 0.0977	0.8877 ± 0.011
303.15 K, 101.33 kPa, x1 = 0.2165	0.9922 ± 0.012
303.15 K, 101.33 kPa, x1 = 0.3008	1.095 ± 0.013
303.15 K, 101.33 kPa, x1 = 0.4012	1.222 ± 0.015
303.15 K, 101.33 kPa, x1 = 0.5004	1.388 ± 0.017
303.15 K, 101.33 kPa, x1 = 0.6025	1.586 ± 0.019
303.15 K, 101.33 kPa, x1 = 0.7049	1.823 ± 0.022
303.15 K, 101.33 kPa, x1 = 0.7922	2.076 ± 0.024
303.15 K, 101.33 kPa, x1 = 0.9023	2.447 ± 0.028
308.15 K, 101 kPa, x1 = 0.0229	0.757 ± 0.007
308.15 K, 101 kPa, x1 = 0.0543	0.772 ± 0.008
308.15 K, 101 kPa, x1 = 0.14	0.822 ± 0.008
308.15 K, 101 kPa, x1 = 0.2319	0.894 ± 0.009
308.15 K, 101 kPa, x1 = 0.3975	1.078 ± 0.01
308.15 K, 101 kPa, x1 = 0.5045	1.248 ± 0.012
308.15 K, 101 kPa, x1 = 0.6384	1.537 ± 0.014
308.15 K, 101 kPa, x1 = 0.6491	1.452 ± 0.15
308.15 K, 101 kPa, x1 = 0.7129	1.732 ± 0.016
308.15 K, 101 kPa, x1 = 0.8283	2.09 ± 0.019
308.15 K, 101 kPa, x1 = 0.904	2.335 ± 0.022
313.15 K, 100 kPa, x2 = 0.0815	2.08 ± 0.17
313.15 K, 100 kPa, x2 = 0.1623	1.88 ± 0.15
313.15 K, 100 kPa, x2 = 0.2416	1.7 ± 0.14
313.15 K, 100 kPa, x2 = 0.3481	1.47 ± 0.12
313.15 K, 100 kPa, x2 = 0.4401	1.3 ± 0.1
313.15 K, 100 kPa, x2 = 0.5592	1.11 ± 0.09
313.15 K, 100 kPa, x2 = 0.6501	0.98 ± 0.08
313.15 K, 100 kPa, x2 = 0.7414	0.88 ± 0.07
313.15 K, 100 kPa, x2 = 0.8502	0.78 ± 0.06
313.15 K, 100 kPa, x2 = 0.9414	0.72 ± 0.06
313.15 K, 101 kPa, x1 = 0.6491	1.327 ± 0.14
318.15 K, 101 kPa, x1 = 0.0229	0.649 ± 0.007
318.15 K, 101 kPa, x1 = 0.0543	0.658 ± 0.007
318.15 K, 101 kPa, x1 = 0.14	0.694 ± 0.007
318.15 K, 101 kPa, x1 = 0.2319	0.758 ± 0.007
318.15 K, 101 kPa, x1 = 0.3975	0.883 ± 0.009
318.15 K, 101 kPa, x1 = 0.5045	1.01 ± 0.01
318.15 K, 101 kPa, x1 = 0.6384	1.227 ± 0.012
318.15 K, 101 kPa, x1 = 0.7129	1.364 ± 0.013
318.15 K, 101 kPa, x1 = 0.8283	1.628 ± 0.015
318.15 K, 101 kPa, x1 = 0.904	1.802 ± 0.017
323.15 K, 100 kPa, x2 = 0.0815	1.64 ± 0.13
323.15 K, 100 kPa, x2 = 0.1623	1.49 ± 0.12
323.15 K, 100 kPa, x2 = 0.2416	1.36 ± 0.11
323.15 K, 100 kPa, x2 = 0.3481	1.2 ± 0.1
323.15 K, 100 kPa, x2 = 0.4401	1.08 ± 0.09
323.15 K, 100 kPa, x2 = 0.5592	0.94 ± 0.08
323.15 K, 100 kPa, x2 = 0.6501	0.85 ± 0.07
323.15 K, 100 kPa, x2 = 0.7414	0.77 ± 0.06
323.15 K, 100 kPa, x2 = 0.8502	0.69 ± 0.06
323.15 K, 100 kPa, x2 = 0.9414	0.63 ± 0.05
